Assay results published in PMC7024302, “Ultrashort Cationic Lipopeptides–Effect of N-Terminal Amino Acid and Fatty Acid Type on Antimicrobial Activity and Hemolysis” (Molecules, 2020).
Values after ≈ are worked out from the molar mass of the structure shown. Like-named read-outs stand apart in the source and are kept apart here. Residues, ends and D or L forms follow the SMILES beside them. *: point of attachment. Myristoyl = CCCCCCCCCCCCCC(=O)*; Acm = CC(=O)NC*

Key:
[1] = system: E. faecium ATCC 700221; format: cell-based, Enterococcus faecium; settings: ATCC 700221, 18 h
Source text: (§1) The Acinetobacter baumannii ATCC BAA-1605, Candida albicans ATCC 10231, Enterococcus faecium ATCC 700221, Klebsiella aerogenes ATCC 13048 (previously known as Enterobacter aerogenes), Klebsiella pneumoniae ATCC 700603, Pseudomonas aeruginosa ATCC 9027, Staphylococcus aureus ATCC 25923 and MRSA ATCC 33591, were acquired from the American Type Culture Collection (ATCC). Before running the tests, beads with cryo-protected microorganisms were transferred into fresh MHB (BioMaxima, Lublin, Poland) for bacteria or RPMI-1640 for fungi and incubated for 24 h at 37 °C. Then, the culture was seeded on the Mueller-Hinton agar (MHA) plates (BioMaxima, Lublin, Poland) for bacteria or Sabouraud dextrose agar (SDA) plates (BioMaxima, Lublin, Poland) for fungi and incubated as just mentioned. Cell densities for all assays were adjusted spectrophotometrically (Multiskan™ GO Microplate Spectrophotometer, Thermo Fisher Scientific, Vantaa, Finland) at 600 nm for bacteria and at 530 nm for fungi.
(§2) The MICs were determined by broth microdilution method according to the Clinical and Laboratory Standard Institute guidelines. For this purpose initial inoculums of bacteria (5 × 10^5 CFU/mL) in MHB (BioMaxima, Lublin, Poland) and fungi (2 × 10^3 CFU/mL) in RPMI-1640 with 2% D-glucose (Merck, Darmstadt, Germany) prepared with MOPS (pH 7.0 ± 0.1 at 25 °C; Merck, Darmstadt, Germany) were exposed to the ranging concentration of lipopeptides (0.5–256 µg/mL) and incubated at 37 °C for 18 h and 24 h respectively. The experiments were conducted on 96-well microtiter polystyrene plates (Kartell, Italy). The MIC was taken as the lowest peptide concentration at which a noticeable growth of microorganisms was inhibited. All experiments were conducted in triplicate.

[2] = system: S. aureus ATCC 33591 (MRSA); format: cell-based, Staphylococcus aureus; settings: ATCC 33591, 18 h
Source text: as §1, §2

[3] = system: S. aureus ATCC 25923; format: cell-based, Staphylococcus aureus; settings: ATCC 25923, 18 h
Source text: as §1, §2

[4] = system: K. aerogenes ATCC 13048; format: cell-based, Klebsiella aerogenes; settings: ATCC 13048, 18 h
Source text: as §1, §2

[5] = system: A. baumannii ATCC BAA-1605; format: cell-based, Acinetobacter baumannii; settings: ATCC BAA-1605, 18 h
Source text: as §1, §2

[6] = Determination of peptide hydrophobicity with RP-HPLC (adjusted retention time); format: physicochemical; settings: for tR’ (adjusted retention time): Table 1 and b9, measure of hydrophobicity, RP-HPLC, Phenomenex Luna C18(2) 3.0 × 100 mm, 5 µm, linear 10–55% acetonitrile in water over 60 min, 0.5 mL/min, peptide 1 g/L; for tR’ (adjusted retention time) / tR’: 0.1% TFA, 25.0 °C, UV 214 nm, triplicate; for tR’: Table 3, adjusted retention time as hydrophobicity, RP-HPLC C18, linear 10–55% acetonitrile over 60 min; for ∆tR: tR’ of the lipopeptide minus tR’ of C10-RR-NH2 or C12-RR-NH2, same RP-HPLC conditions
Method: To determine peptide hydrophobicity, the Waters Alliance e2695 system with a Waters 2998 PDA Detector (software-Empower®3) was used. All analyses were carried out on a Phenomenex Luna C18(2) column (3.0 × 100 mm, 5 µm particle size, 100 Å pore size). The peptides were dissolved in water (0.1% TFA, v/v) to obtain a concentration of 1 g/L. UV detection at 214 nm was used, and aliquots (10 µL) were eluted with a linear 10–55% acetonitrile gradient in deionized water over 60 min at 25.0 ± 0.1 °C. The mobile phase flow rate was 0.5 mL/min. Both eluents contained 0.1% (v/v) of TFA. Each peptide sample was analyzed in triplicate.

[7] = system: P. aeruginosa ATCC 9027; format: cell-based, Pseudomonas aeruginosa; settings: ATCC 9027, 18 h
Source text: as §1, §2

[8] = system: human red blood cells (hRBCs); format: cell-based; settings: red cells of human, 1 h
Method: The hemolysis assay was performed as described earlier according to the method of Avrahami and Shai. Fresh human red blood cells (hRBCs) with anticoagulant (EDTA) were rinsed three times with a PBS (Merck, Darmstadt, Germany) by centrifugation at 800× g for 10 min and resuspended in PBS. Lipopeptides were serially diluted on 96-well microtiter polystyrene plate and hRBCs were added to reach final volume of 100 µL. Peptide concentration ranged between 0.5 and 256 µg/mL and final hRBCs concentration was 4% (v/v). Controls for zero hemolysis (blank) and 100% hemolysis consisted of hRBCs suspended in PBS and 1% of Triton-X 100 (Merck, Darmstadt, Germany), respectively. The plate was incubated for 1 h at 37 °C and then centrifuged (800× g, 10 min, 4 °C). Subsequently, supernatant was […] to new microtiter plates and absorbance at 540 nm were measured. All experiments were conducted in triplicate. Protocol of the study received approval from the local Bioethics Committee at the Medical University of Gdańsk (NKBBN/262/2019).

[9] = system: C. albicans ATCC 10231; format: cell-based, Candida albicans
Source text: as §1, §2

[10] = system: K. pneumoniae ATCC 700603; format: cell-based, Klebsiella pneumoniae; settings: ATCC 700603, 18 h
Source text: as §1, §2

Structure (SMILES) | MIC E1 [1] [µg/mL] | MIC S [2] | MIC SA [3] | MIC E2 [4] | MIC A [5] [µg/mL] | tR’ (adjusted retention time) [6] [min] | tR’ [6] [min] | MIC PA [7] [µg/mL] | HC50 [8] | MIC CA ([9]; ATCC 10231, 24 h, pH 7) [µg/mL] | MIC K [10] | MIC CA ([9]; C. albicans ATCC 10231, RPMI-1640 with 2% D-glucose, MOPS pH 7.0, 2 × 10^3 CFU/mL, 0.5–256 µg/mL, 37 °C, 24 h, triplicate) [µg/mL] | ∆tR [6] [min]
CCCCCCCCCCCC(=O)N[C@@H](CCCNC(=N)N)C(=O)N[C@@H](CCCNC(=N)N)C(N)=O [compound 3, C12-RR-NH2, reference compound] (HELM PEPTIDE1{[CCCCCCCCCCCC(=O)[*:2]].R.R.[am]}$$$$V2.0) | 32 (≈ 62.5 µM) | 32 µg/mL (≈ 62.5 µM) | 32 µg/mL (≈ 62.5 µM) | >256 (-) µg/mL | 256 (≈ 500 µM) | 32.58 | 32.58 | 128 (≈ 250 µM) | >256 µg/mL | 64 (≈ 125 µM) | >256 (-) µg/mL |  | 
CCCCCCCCCCCCCC(=O)N[C@@H](CCCNC(=N)N)C(=O)N[C@@H](CCCNC(=N)N)C(N)=O [compound 4, C14-RR-NH2, reference compound] (HELM PEPTIDE1{[CCCCCCCCCCCCCC(=O)[*:2]].R.R.[am]}$$$$V2.0) | 8 (≈ 14.8 µM) | 8 µg/mL (≈ 14.8 µM) | 8 µg/mL (≈ 14.8 µM) | 256 µg/mL (≈ 474 µM) | 64 (≈ 119 µM) |  | 39.79 | 32 (≈ 59.3 µM) | 68.43 (±1.41) µg/mL | 8 (≈ 14.8 µM) | 256 µg/mL (≈ 474 µM) |  | 
CCCCCCCCCCCCCCCC(=O)N[C@@H](CCCNC(=N)N)C(=O)N[C@@H](CCCNC(=N)N)C(N)=O [compound 5, C16-RR-NH2, reference compound] (HELM PEPTIDE1{[CCCCCCCCCCCCCCCC(=O)[*:2]].R.R.[am]}$$$$V2.0) | 8 (≈ 14.1 µM) | 8 µg/mL (≈ 14.1 µM) | 8 µg/mL (≈ 14.1 µM) | 32 µg/mL (≈ 56.4 µM) | 32 (≈ 56.4 µM) |  | 46.51 | 16 (≈ 28.2 µM) | 22.91 (±1.18) µg/mL |  | 32 µg/mL (≈ 56.4 µM) | 4 (≈ 7.04 µM) | 
CCCCCCCCCCCCCCCCCC(=O)N[C@@H](CCCNC(=N)N)C(=O)N[C@@H](CCCNC(=N)N)C(N)=O [compound 6, C18-RR-NH2, reference compound] (HELM PEPTIDE1{[CCCCCCCCCCCCCCCCCC(=O)[*:2]].R.R.[am]}$$$$V2.0) | 8 (≈ 13.4 µM) | 16 µg/mL (≈ 26.9 µM) | 16 µg/mL (≈ 26.9 µM) | 16 µg/mL (≈ 26.9 µM) | 32 (≈ 53.7 µM) |  | 53.39 | 64 (≈ 107 µM) | 25.19 (±0.67) µg/mL | 4 (≈ 6.71 µM) | 16 µg/mL (≈ 26.9 µM) |  | 
CCCCCCCCCCCCCC(=O)N[C@@H](C)C(=O)N[C@@H](CCCNC(=N)N)C(=O)N[C@@H](CCCNC(=N)N)C(N)=O [compound 10, C14-ARR-NH2] (HELM PEPTIDE1{[CCCCCCCCCCCCCC(=O)[*:2]].A.R.R.[am]}$$$$V2.0) | 8 (≈ 13.1 µM) | 16 µg/mL (≈ 26.2 µM) | 8 µg/mL (≈ 13.1 µM) | 256 µg/mL (≈ 419 µM) | 32 (≈ 52.4 µM) |  | 40.92 | 32 (≈ 52.4 µM) | 41.08 (±0.62) µg/mL | 16 (≈ 26.2 µM) | 256 µg/mL (≈ 419 µM) |  | 
CCCCCCCCCCCCCC(=O)N[C@@H](CSCNC(C)=O)C(=O)N[C@@H](CCCNC(=N)N)C(=O)N[C@@H](CCCNC(=N)N)C(N)=O [compound 14, C14-C(Acm)RR-NH2] (Myristoyl-Cys(Acm)-Arg-Arg-NH2) | 8 (≈ 11.2 µM) | 16 µg/mL (≈ 22.4 µM) | 16 µg/mL (≈ 22.4 µM) | 256 µg/mL (≈ 359 µM) | 16 (≈ 22.4 µM) |  | 43.24 | 16 (≈ 22.4 µM) | 39.72 (±1.25) µg/mL | 8 (≈ 11.2 µM) | 256 µg/mL (≈ 359 µM) |  | 
CCCCCCCCCC(=O)N[C@@H](Cc1ccccc1)C(=O)N[C@@H](CCCNC(=N)N)C(=O)N[C@@H](CCCNC(=N)N)C(N)=O [compound 24, C10-FRR-NH2] (HELM PEPTIDE1{[CCCCCCCCCC(=O)[*:2]].F.R.R.[am]}$$$$V2.0) | 32 (≈ 50.7 µM) | 16 (>16) µg/mL | 16 (>16) µg/mL | >256 (-) µg/mL | 64 (≈ 101 µM) | 34.68 | 34.68 | 32 (≈ 50.7 µM) | >256 µg/mL | 64 (≈ 101 µM) | >256 (-) µg/mL |  | 10.38
CCCCCCCCCCCC(=O)N[C@@H](Cc1ccccc1)C(=O)N[C@@H](CCCNC(=N)N)C(=O)N[C@@H](CCCNC(=N)N)C(N)=O [compound 25, C12-FRR-NH2] (HELM PEPTIDE1{[CCCCCCCCCCCC(=O)[*:2]].F.R.R.[am]}$$$$V2.0) | 8 (≈ 12.1 µM) | 8 µg/mL (≈ 12.1 µM) | 4 µg/mL (≈ 6.07 µM) | 256 µg/mL (≈ 389 µM) | 64 (≈ 97.1 µM) | 41.45 | 41.45 | 8 (≈ 12.1 µM) | 91.21 (±16.38) µg/mL | 8 (≈ 12.1 µM) | 256 µg/mL (≈ 389 µM) |  | 8.87
